Test results published in article PMC9561422 (Clinical and Translational Medicine, 2022).
“Also recorded” adds a separate entry of the source. Like-named read-outs stand apart in the source and are kept apart here. Ends that are not written are not given here.

Experiments:
[1] = kidney homogenate; conditions: C57BL/6 mice
[2] = faeces homogenate; conditions: C57BL/6 mice
[3] = muscle homogenate; conditions: C57BL/6 mice
[4] = liver homogenate; conditions: C57BL/6 mice
[5] = colon homogenate (incl. caecum); conditions: C57BL/6 mice
[6] = tested on: C2C12 myotubes; conditions: Murine myotubes, MTT dose-response curve
Method: (§1) Initially, MTT concentration‐response experiments in murine and human myoblasts as well as in myotubes were performed.
(§2) The 95% confidence interval of this curve is shown as grey area. IC10 is shown as a red vertical line.
(§3) Data are means ± SEM. […] (D–F) Data are means ± SEM. *p < .05; **p < .01; ***p < .001; two‐tailed Welch's t‐test. […] The exponent is read as -7; the minus sign and the digit are not certain. / Panel A: no compound label is printed beside the value. 'QSP' comes from the y-axis title of the same panel.

[7] = tested on: C2C12 myoblast; test: Viability assays other than MTT on C2C12 myoblasts; assay type: cell-based, murine; conditions: 1 µM; trypan blue, Hoechst/PI, LDH release, Bax/Bcl2, Apotox assay
[8] = tested on: C. elegans; conditions: adult worms treated once with 1 µM; n = 341, 5 independent experiments
Description: Data presented are means ± SEM. * P < 0.05; ** P < 0.01 and *** P < 0.001; Welch’s 2-sided t-test with placebo as reference.DACBSupplementary Figure 2

[9] = tested on: human myoblasts
Method: as §1
(§4) Supplementary Figure 1. […] A) C2C12 myoblasts; B) human myoblasts. The x-axis indicates the different QSP concentrations, while the y-axis represents MTT reduction relative to placebo (placebo = 1.0). Squares (+ error bars) are means (+ SEM) of n=8-10 for each concentration, with the curve representing the best fitting 3-parameter logistic model around the means. The 95% confidence interval of this curve is shown as grey area. IC10 is shown as a red vertical line.

[10] = tested on: C2C12 myoblasts; conditions: Murine myoblasts, MTT dose-response curve
Method: as §1, §4

[11] = germ-free mice inoculated with genetically modified E. coli continuously producing iAM373
Description: as §3

[12] = ex vivo
Method: The powdered medium is dissolved in 900 mL water while stirring. To this solution, 0.3790 g CaCl2×2H2O and 2.098 g NaHCO3 are subsequently added while stirring. NaOH or HCl was used to adjust to pH 7.4. This solution is then further diluted to 1000 mL using ultrapure water.
The blood was collected in a 1.5 mL Eppendorf tube after decapitating the mouse. The blood of the 4 mice was pooled and centrifuged for 10 min at 1000 g at 5 °C. The supernatant (serum) was transferred to a 500 µL Eppendorf and was immediately frozen and stored at -35 °C.
The liver (5.0070 g) was collected from four C57BL/6 mice after cervical dislocation. After cleaning and rinsing the organ using ice-cold KH buffer, the liver was cut in little pieces and transferred into a 50 mL tube to which 36 mL ice-cold KH buffer was added. The liver was then homogenized with mixer. After the larger particles were allowed to settle for about 30 minutes at 5 °C, approximately 25 mL of the middle layer was transferred into a 50 mL Falcon tube using a plastic pipette. After shaking the homogenate, the homogenate was dispensed into ten 2 mL Eppendorf tubes, and stored at -35 °C until use. The protein content of the homogenate was determined to be 18.24 mg/mL using the Pierce Modified Lowry Protein Assay method. Just before use, the homogenate was diluted to a protein concentration of 0.6 mg/mL (i.e. 300 µg / 500 µl) by the addition of 29.4 mL of KH buffer to 1000 µl of the homogenate.
The kidneys (1.4143 g) were collected from four C57BL/6 mice after cervical dislocation. After cleaning and rinsing the organs using ice-cold KH buffer, the kidneys were cut in little pieces and transferred into a 50 mL tube to which 24 mL ice-cold KH buffer was added. The kidneys were then homogenized with mixer. After the larger particles were allowed to settle for about 30 minutes at 5 °C, approximately 10 mL of the middle layer was transferred into a 50 mL Falcon tube using a plastic pipette. After shaking the homogenate, the homogenate was dispensed into five 2 mL Eppendorf tubes, and stored at -35 °C until use. The protein content of the homogenate was determined to be 5.92 mg/mL using the Pierce Modified Lowry Protein Assay method. Just before use, the homogenate was diluted to a protein concentration of 0.6 mg/mL (i.e. 300 µg / 500 µl) by the addition of 8.87 mL of KH buffer to 1000 µl of the homogenate.
The colons (incl. caecum) (1.4174 g) were collected from four C57BL/6 mice after cervical dislocation. After cleaning and rinsing the organs using ice-cold KH buffer, the colons were cut in little pieces and transferred into a 15 mL tube to which 5 mL ice-cold KH buffer was added. The colons were then homogenized with mixer. After the larger particles were allowed to settle for about 30 minutes at 5 °C, approximately 2 mL of the middle layer was dispensed into a 2 mL Eppendorf tube, and stored at -35 °C until use. The protein content of the homogenate was determined to be 2.35 mg/mL using the Pierce Modified Lowry Protein Assay method. Just before use, the homogenate was diluted to a protein concentration of 0.6 mg/mL (i.e. 300 µg / 500 µl) by the addition of 2.92 mL of KH buffer to 1000 µl of the homogenate.
Fresh faeces (0.1810 g) was collected from four C57BL/6 mice. The faeces was then cut in little pieces and transferred into a 15 mL tube to which 5 mL ice-cold KH buffer was added. […] The protein content of the homogenate was determined to be 1.48 mg/mL using the Pierce Modified Lowry Protein Assay method. […]

[13] = in vitro; conditions: human, Caco-2
Description: as §3
(§5) [picture] Supplementary Figure 5. […] Data are means ± SEM.Supplementary Figure 5

[14] = tested on: CaCo‐2 monolayer; test: in vitro; conditions: CaCo-2 monolayer, apical-basal, 4°C, n = 6
Description: as §3, §5

[15] = tested on: human myotubes; conditions: MTT dose-response curve
Method: as §1, §2

With SIFTLVA the fragment found [1] was “SIFT, major; also recorded: SIFTL, major”, the fragment found [2] was “SIF, major” and the fragment found [3] was “SIFTL, major”. The fragment found [4] was “FTLVA, major” and the fragment found [5] was “SIFTL, major”.

With SIFTLVA [iAM373] the IC50 [6] was 13 nM, the “cytotoxic or cytostatic effect in viability assays other than MTT” value [7] was “did not show a clear cytotoxic or cytostatic effect” and the “effect on survival of C. elegans” value [8] was “without a clear effect on survival”. The IC50 ([9]; Human myoblasts, MTT dose-response curve) was 180 nM, the IC90 ([9]; human myoblasts, MTT) was 930 nM and the IC50 [10] was 61 nM. The “presence in blood circulation after oral gavage of iAM373-producing E. coli” value [11] was “detected in the blood circulation”, the “Main metabolite at approx. T1/2” value ([12]; murine colon homogenate) was “SIFTL (180 min)” and the “Main metabolite at approx. T1/2” value ([12]; murine faeces homogenate) was “SIF (60 min)”. For the same substance, the “Main metabolite at approx. T1/2” value ([12]; murine kidney homogenate) was “SIFT (30 min) SIFTL (30 min)”, the “Main metabolite at approx. T1/2” value ([12]; murine liver homogenate) was “FTLVA (180 min)” and the “Main metabolite at approx. T1/2” value ([12]; murine muscle homogenate) was “SIFTL (180 min)”. For the same substance, the Papp A→B [13] was 0.14 ×10⁻⁶ cm/s, the “apical‐basal permeability coefficient (Papp)” value [14] was 0.87×10^–7 cm/s and the IC50 [15] was 5.4 nM. It also gave an estimated plasma concentration in iAM373-positive older residents of 453 pM.
